The values that follow come from US10919841B2, “Monoamine reuptake inhibitors” (Research Triangle Institute, priority 2009, dated 2021).

The structures appear in SMILES notation.

T3 sequence (P31645 whole entry): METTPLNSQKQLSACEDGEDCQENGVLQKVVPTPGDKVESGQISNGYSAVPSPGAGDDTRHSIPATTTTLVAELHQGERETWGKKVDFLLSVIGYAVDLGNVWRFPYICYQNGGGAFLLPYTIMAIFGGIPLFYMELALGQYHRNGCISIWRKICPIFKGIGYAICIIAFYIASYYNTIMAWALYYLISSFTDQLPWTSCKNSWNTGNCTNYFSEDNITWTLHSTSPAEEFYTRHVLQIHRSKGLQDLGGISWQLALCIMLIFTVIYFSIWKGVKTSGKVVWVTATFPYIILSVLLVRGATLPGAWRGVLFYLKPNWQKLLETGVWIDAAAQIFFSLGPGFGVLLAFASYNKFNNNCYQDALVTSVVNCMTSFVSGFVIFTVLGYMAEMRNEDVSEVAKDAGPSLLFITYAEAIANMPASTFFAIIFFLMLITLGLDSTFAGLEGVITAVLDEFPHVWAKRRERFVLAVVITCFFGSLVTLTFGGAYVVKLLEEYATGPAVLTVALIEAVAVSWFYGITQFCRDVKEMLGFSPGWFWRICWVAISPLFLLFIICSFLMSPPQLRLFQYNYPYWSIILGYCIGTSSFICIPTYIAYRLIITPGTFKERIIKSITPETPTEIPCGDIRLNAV
T1 sequence (P23975 whole entry): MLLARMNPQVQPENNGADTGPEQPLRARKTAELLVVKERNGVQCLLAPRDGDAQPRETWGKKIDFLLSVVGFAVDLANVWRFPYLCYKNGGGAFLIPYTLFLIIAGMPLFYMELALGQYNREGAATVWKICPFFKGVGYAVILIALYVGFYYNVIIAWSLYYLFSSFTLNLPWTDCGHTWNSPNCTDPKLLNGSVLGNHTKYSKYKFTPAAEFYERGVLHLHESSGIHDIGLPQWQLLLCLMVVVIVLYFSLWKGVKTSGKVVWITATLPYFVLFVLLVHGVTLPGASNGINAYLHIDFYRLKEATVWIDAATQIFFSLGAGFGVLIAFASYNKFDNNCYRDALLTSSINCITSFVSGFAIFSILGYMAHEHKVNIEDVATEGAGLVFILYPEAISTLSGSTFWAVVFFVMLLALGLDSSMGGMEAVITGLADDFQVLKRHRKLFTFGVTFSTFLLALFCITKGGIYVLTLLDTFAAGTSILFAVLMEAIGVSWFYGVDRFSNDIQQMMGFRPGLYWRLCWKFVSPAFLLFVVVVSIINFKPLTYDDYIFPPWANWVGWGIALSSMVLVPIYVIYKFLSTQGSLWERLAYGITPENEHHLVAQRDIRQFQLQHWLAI
T2 sequence (Q01959 whole entry): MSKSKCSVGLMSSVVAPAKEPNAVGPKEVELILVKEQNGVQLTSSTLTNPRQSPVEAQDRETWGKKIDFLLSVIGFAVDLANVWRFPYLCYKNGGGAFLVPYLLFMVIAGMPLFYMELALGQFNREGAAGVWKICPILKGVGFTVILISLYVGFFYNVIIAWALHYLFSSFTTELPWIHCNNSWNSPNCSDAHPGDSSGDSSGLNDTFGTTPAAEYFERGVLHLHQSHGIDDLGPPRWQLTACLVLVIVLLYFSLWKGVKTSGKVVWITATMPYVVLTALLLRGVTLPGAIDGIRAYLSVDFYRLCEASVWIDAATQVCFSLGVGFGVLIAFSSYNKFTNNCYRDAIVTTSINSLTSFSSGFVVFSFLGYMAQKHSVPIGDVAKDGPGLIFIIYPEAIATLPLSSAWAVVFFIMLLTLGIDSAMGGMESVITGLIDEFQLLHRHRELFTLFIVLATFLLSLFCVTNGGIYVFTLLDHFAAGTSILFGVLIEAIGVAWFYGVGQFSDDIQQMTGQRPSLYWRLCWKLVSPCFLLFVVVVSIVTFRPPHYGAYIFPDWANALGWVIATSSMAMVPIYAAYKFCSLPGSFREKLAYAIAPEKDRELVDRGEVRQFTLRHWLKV

One assay concerns the target T1, (h)NET (Homo sapiens, UniProt P23975). Put plainly: block of [3H]norepinephrine reuptake in HEK-(h)NET cells. To be noted: read-out: Uptake, IC50 [3H]NE; bound given in μM.
Turning to `CC(C)(C)NC(CCC1CCCCC1)C(=O)c1cccc(Cl)c1` (stereo not drawn) [Compound 2u, 2-(N-tert-Butylamino)-3′-chlorophenyl-4-cyclohexylbutanophenone], the IC50 – broadly, the concentration at which inhibition is half-maximal – was above 10 µM.

Staying with this assay, now noted: read-out: Uptake, IC50 [3H]NE; mean ± standard error of three independent experiments.
As for `Cc1cc(C(=O)C(C)NC(C)(C)C)ccc1Br` (stereo not drawn) [Compound 2l, 2-(N-tert-Butylamino)-4′-bromo-5′-methylpropiophenone], the IC50 was found to be 1.62 µM.

Another assay has as its target T2, (h)DAT (Homo sapiens, UniProt Q01959).
T2 construct: expressed in transfected cells
In words: block of [3H]dopamine reuptake in HEK-(h)DAT cells. The following applies: [3H]DA; read-out: IC50 for DA uptake inhibition. Format: cell-based.
Regarding `CC(C)(C)NC(CCC1CCCCC1)C(=O)c1cccc(Cl)c1` (stereo not drawn) [Compound 2u, 2-(N-tert-Butylamino)-3′-chlorophenyl-4-cyclohexylbutanophenone], the IC50 was above 10 µM.

The assay is the same for the next values; noted with them: bound given in μM; read-out: Uptake, IC50 [3H]DA.
As to `CC(C)(C)NC(CCC1CCCCC1)C(=O)c1cccc(Cl)c1` (stereo not drawn) [Compound 2u, 2-(N-tert-Butylamino)-3′-chlorophenyl-4-cyclohexylbutanophenone], the IC50 is above 10 µM.

The target of another assay is T1, (h)NET. In words: competition binding with [125I]RTI-55 at (h)NET stably expressed in HEK293 cells. The following applies: read-out: Binding, Ki NET; mean ± standard error of three independent experiments.
Consider `Cc1cc(C(=O)C(C)NC(C)(C)C)ccc1Br` (stereo not drawn) [Compound 2l, 2-(N-tert-Butylamino)-4′-bromo-5′-methylpropiophenone], for which the Ki – broadly, the dissociation constant of the complex between target and ligand, obtained from inhibition or displacement – stood at 4.6 µM.
For the compound `CC(C)(C)NC(CCC1CCCCC1)C(=O)c1cccc(Cl)c1` (stereo not drawn) [Compound 2u, 2-(N-tert-Butylamino)-3′-chlorophenyl-4-cyclohexylbutanophenone], the Ki was found to be 3.8 µM.

Another assay deals with T2, (h)DAT. Put plainly: competition binding with [125I]RTI-55 at (h)DAT stably expressed in HEK293 cells. The following applies: mean ± standard error of three independent experiments.
In turn, `CC(C)(C)NC(CCC1CCCCC1)C(=O)c1cccc(Cl)c1` (stereo not drawn) [Compound 2u, 2-(N-tert-Butylamino)-3′-chlorophenyl-4-cyclohexylbutanophenone] yielded a Ki of 1.7 µM.

Another assay concerns rats. Put plainly: cocaine discrimination (2-lever operant), i.p. administration. To be noted: Rattus norvegicus, ip, read-out: % cocaine lever responding.
With `Cc1cc(C(=O)C(C)NC(C)(C)C)ccc1Br` (stereo not drawn) [Compound 2l, 2-(N-tert-Butylamino)-4′-bromo-5′-methylpropiophenone], the responders at 10 mg/kg came out at 0%, the responders at 25 mg/kg was determined as 0%, the responders at 50 mg/kg is 17% and the responders at 100 mg/kg came to 67%.

Staying with this assay, now noted: rats, IP, dose 5 mg/kg.
Regarding `CC(C)(C)NC(CCC1CCCCC1)C(=O)c1cccc(Cl)c1` (stereo not drawn) [Compound 2u, 2-(N-tert-Butylamino)-3′-chlorophenyl-4-cyclohexylbutanophenone], the “% cocaine lever responding” value is listed as 0%.

Still in this assay, the particulars now being: rats, IP, dose 10 mg/kg.
As to `CC(C)(C)NC(CCC1CCCCC1)C(=O)c1cccc(Cl)c1` (stereo not drawn) [Compound 2u, 2-(N-tert-Butylamino)-3′-chlorophenyl-4-cyclohexylbutanophenone], the “% cocaine lever responding” value was 0%.

The assay is the same for the next values; noted with them: rats, IP, dose 25 mg/kg.
For the compound `CC(C)(C)NC(CCC1CCCCC1)C(=O)c1cccc(Cl)c1` (stereo not drawn) [Compound 2u, 2-(N-tert-Butylamino)-3′-chlorophenyl-4-cyclohexylbutanophenone], the “% cocaine lever responding” value is listed as 70%.

Staying with this assay, now noted: rats, IP; response rate relative to vehicle control.
Take `CC(C)(C)NC(CCC1CCCCC1)C(=O)c1cccc(Cl)c1` (stereo not drawn) [Compound 2u, 2-(N-tert-Butylamino)-3′-chlorophenyl-4-cyclohexylbutanophenone]: the “Comments (response rate)” value was “B^b”.

A further assay has as its system mice. Put plainly: locomotor activity, 8-h time course protocol. The following applies: 1-h and 8-h tests compared. Format: in vivo.
`CC(C)(C)NC(CCC1CCCCC1)C(=O)c1cccc(Cl)c1` (stereo not drawn) [Compound 2u, 2-(N-tert-Butylamino)-3′-chlorophenyl-4-cyclohexylbutanophenone]: the “locomotor stimulant activity across the 1-h and 8-h protocols, in words” value was “inactive in the 1-h test but showed weak stimulant activity in the 8-h protocol”.

The same assay, now with this note: Mus musculus, read-out: Locomotor Activity 8-Hour % Peak Cocaine, percent of cocaine's maximal effect, 30 min period of maximum stimulation.
With `Cc1cc(C(=O)C(C)NC(C)(C)C)ccc1Br` (stereo not drawn) [Compound 2l, 2-(N-tert-Butylamino)-4′-bromo-5′-methylpropiophenone], the Emax came out at 46%.

Still in this assay, the particulars now being: Mus musculus; dose to produce 50% of the compound's maximal effect; 8-h; read-out: Locomotor Activity 8-Hour ED50.
`Cc1cc(C(=O)C(C)NC(C)(C)C)ccc1Br` (stereo not drawn) [Compound 2l, 2-(N-tert-Butylamino)-4′-bromo-5′-methylpropiophenone]: the ED50 (in general, the dose at which the effect has come halfway, by size or by number of responders) amounted to 12.8 mg/kg.

The assay is the same for the next values; noted with them: dose to produce 50% of the compound's maximal effect; 8-h.
For `CC(C)(C)NC(CCC1CCCCC1)C(=O)c1cccc(Cl)c1` (stereo not drawn) [Compound 2u, 2-(N-tert-Butylamino)-3′-chlorophenyl-4-cyclohexylbutanophenone], the “Locomotor Activity 8-Hour ED50” value was found to be 15.3 mg/kg.

The same assay, now with this note: duration of locomotor activity.
Consider `Cc1cc(C(=O)C(C)NC(C)(C)C)ccc1Br` (stereo not drawn) [Compound 2l, 2-(N-tert-Butylamino)-4′-bromo-5′-methylpropiophenone], for which the “Locomotor Activity 8-Hour Time, min Period, length” value stood at 240 min.
In the case of `CC(C)(C)NC(CCC1CCCCC1)C(=O)c1cccc(Cl)c1` (stereo not drawn) [Compound 2u, 2-(N-tert-Butylamino)-3′-chlorophenyl-4-cyclohexylbutanophenone], the “Locomotor Activity 8-Hour Time, min Period, length” value is 60 to 160 min.

The assay is the same for the next values; noted with them: percent of cocaine's maximal effect, 30 min period of maximum stimulation.
As for `CC(C)(C)NC(CCC1CCCCC1)C(=O)c1cccc(Cl)c1` (stereo not drawn) [Compound 2u, 2-(N-tert-Butylamino)-3′-chlorophenyl-4-cyclohexylbutanophenone], the “Locomotor Activity 8-Hour % Peak Cocaine” value came to 47%.

The assay is the same for the next values; noted with them: time period of maximum effect.
Consider `Cc1cc(C(=O)C(C)NC(C)(C)C)ccc1Br` (stereo not drawn) [Compound 2l, 2-(N-tert-Butylamino)-4′-bromo-5′-methylpropiophenone], for which the “Locomotor Activity 8-Hour Time, min Period, max” value lay within 50 to 80 min.
With `CC(C)(C)NC(CCC1CCCCC1)C(=O)c1cccc(Cl)c1` (stereo not drawn) [Compound 2u, 2-(N-tert-Butylamino)-3′-chlorophenyl-4-cyclohexylbutanophenone], the “Locomotor Activity 8-Hour Time, min Period, max” value fell in the range of 60 to 90 min.

The next assay concerns mice. In words: locomotor activity, 1-h observation protocol. The following applies: dose to produce 50% of the compound's maximal effect; 1-h. Format: in vivo.
As for `Cc1cc(C(=O)C(C)NC(C)(C)C)ccc1Br` (stereo not drawn) [Compound 2l, 2-(N-tert-Butylamino)-4′-bromo-5′-methylpropiophenone], the “Locomotor Activity 1-Hour ED50” value is listed as “NE^f”.
For `CC(C)(C)NC(CCC1CCCCC1)C(=O)c1cccc(Cl)c1` (stereo not drawn) [Compound 2u, 2-(N-tert-Butylamino)-3′-chlorophenyl-4-cyclohexylbutanophenone], the “Locomotor Activity 1-Hour ED50” value is on record as “NE^f”.

Another assay addresses T3, (h)SERT (Homo sapiens, UniProt P31645).
T3 construct: expressed in transfected cells; host or cells: HEK293
Experiment: not given
The following applies: mean ± standard error of three independent experiments; read-out: Binding, Ki SERT.
Turning to `CC(C)(C)NC(CCC1CCCCC1)C(=O)c1cccc(Cl)c1` (stereo not drawn) [Compound 2u, 2-(N-tert-Butylamino)-3′-chlorophenyl-4-cyclohexylbutanophenone], the Ki is 6.2 µM.

Still in this assay, the particulars now being: read-out: Binding, Ki SERT.
`Cc1cc(C(=O)C(C)NC(C)(C)C)ccc1Br` (stereo not drawn) [Compound 2l, 2-(N-tert-Butylamino)-4′-bromo-5′-methylpropiophenone]: the Ki amounted to 1.22 µM.

A further assay addresses T3, (h)SERT. Put plainly: block of [3H]serotonin reuptake in HEK-(h)SERT cells. Type of assay: cell-based. The following applies: bound given in μM; read-out: Uptake, IC50 [3H]5-HT.
In the case of `CC(C)(C)NC(CCC1CCCCC1)C(=O)c1cccc(Cl)c1` (stereo not drawn) [Compound 2u, 2-(N-tert-Butylamino)-3′-chlorophenyl-4-cyclohexylbutanophenone], the concentration for half-maximal inhibition (IC50) is above 10 µM.

The assay is the same for the next values; noted with them: read-out: IC50 for 5HT uptake inhibition.
Consider `Cc1cc(C(=O)C(C)NC(C)(C)C)ccc1Br` (stereo not drawn) [Compound 2l, 2-(N-tert-Butylamino)-4′-bromo-5′-methylpropiophenone], for which the IC50 came out at 0.473 µM.
